US20070292465A1, “Eutectic biocide compositions and formulations” (Clariant International, Ltd., priority 2006, published 2007)

Key:
[1] = Brookfield viscosity, SC4-18 spindle, 100 rpm; type: physicochemical
Protocol: The procedure used a Brookfield viscometer.
The apparatus used was a Brookfield viscometer, Programmable DV-II+Viscometer and a SC4-18 spindle.
The samples were tested at 100 rpm and at a range of temperatures, as shown in Table 4—Viscosity Measurement Results below.
All measurements were made in centipoise. For reference purposes, the viscosity of water, at 25° C. is 0.89 centipoise, and the viscosity of ethylene glycol at 25° C. is about 16 centipoise.

[2] = Physical properties at freezing temperatures and on thawing (Example 3); type: physicochemical
Protocol: The following samples were tested to observe their physical properties at freezing temperatures:
After blending, such as by the method above, for example, all samples were allowed to cool to room temperature (20° C.). All samples stayed liquid at room temperature, except for blend 5.
All samples were placed in a freezer overnight ([…]).
All samples were placed back in the same freezer at the same temperature for an additional 2 days. In the BCP sample, there was-no change.
All samples were left at room temperature to thaw overnight.

[3] = 25° C., for reference purposes; cited from earlier work

Row | SMILES | viscosity ([1]; 10 ° C.) | viscosity ([1]; 40 ° C.) [centipoise] | physical state after overnight freezing ([2]; freezer overnight (23° C.)) | physical state after extended freezing ([2]; same freezer, same temperature, additional 2 days) | viscosity (reference) [3]
1 | Oc1ccc(Cl)cc1Cc1ccccc1 [BCP, o-benzyl p-chlorophenol] | Crystalline | 29.4 | frozen solid | no change | –
2 | OCCO [ethylene glycol] | – | – | – | – | about 16 centipoise
3 | O [water] | – | – | – | – | 0.89 centipoise
